According to PubChem BioAssay (NCI):
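Step 1: Grow cells in 96-well plates. Step 2: Expose to compound for 48 hours at 5 concentrations. Step 3: Interpolate endpoints linearly; if unreached, use highest concentration. GI50 = concentration required for 50% inhibition of growth. TGI marks complete inhibition of growth.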

Tests used:
Assay in all cases: NCI-60 cell line screen, 48 h; in the data active = GI50 below about 0.43 µM; inactive = the rest
LOX IMVI melanoma = tested on: LOX IMVI melanoma
KM12 colon = tested on: KM12 colon
U251 CNS = tested on: U251 CNS
SK-MEL-5 melanoma = tested on: SK-MEL-5 melanoma
HOP-62 NSCLC = tested on: HOP-62 NSCLC
HCT-15 colon = tested on: HCT-15 colon
SK-MEL-28 melanoma = tested on: SK-MEL-28 melanoma
SNB-19 CNS = tested on: SNB-19 CNS
NCI-H226 lung = tested on: NCI-H226 lung
SF-539 CNS = tested on: SF-539 CNS
A498 renal = tested on: A498 renal
MOLT-4 leukemia = tested on: MOLT-4 leukemia
HCT-116 colon = tested on: HCT-116 colon
TK-10 renal = tested on: TK-10 renal
EKVX NSCLC = tested on: EKVX NSCLC
OVCAR-4 ovarian = tested on: OVCAR-4 ovarian
IGROV1 ovarian = tested on: IGROV1 ovarian
CCRF-CEM leukemia = tested on: CCRF-CEM leukemia
COLO 205 colon = tested on: COLO 205 colon
SF-295 CNS = tested on: SF-295 CNS
786-0 renal = tested on: 786-0 renal
LXFL 529 NSCLC = tested on: LXFL 529 NSCLC
HT29 colon = tested on: HT29 colon
UACC-62 melanoma = tested on: UACC-62 melanoma
SN12C renal = tested on: SN12C renal
OVCAR-3 ovarian = tested on: OVCAR-3 ovarian
RPMI-8226 leukemia = tested on: RPMI-8226 leukemia
HOP-92 NSCLC = tested on: HOP-92 NSCLC
UACC-257 melanoma = tested on: UACC-257 melanoma
NCI-H522 lung = tested on: NCI-H522 lung
A549 NSCLC = tested on: A549 NSCLC
CAKI-1 renal = tested on: CAKI-1 renal
DLD-1 colon = tested on: DLD-1 colon
HCC-2998 colon = tested on: HCC-2998 colon
OVCAR-8 ovarian = tested on: OVCAR-8 ovarian
K-562 leukemia = tested on: K-562 leukemia
SW-620 colon = tested on: SW-620 colon
M14 melanoma = tested on: M14 melanoma
UO-31 renal = tested on: UO-31 renal
SF-268 CNS = tested on: SF-268 CNS
KM20L2 colon = tested on: KM20L2 colon
RXF 393 renal = tested on: RXF 393 renal
MALME-3M melanoma = tested on: MALME-3M melanoma
OVCAR-5 ovarian = tested on: OVCAR-5 ovarian
SK-MEL-2 melanoma = tested on: SK-MEL-2 melanoma
NCI-H23 lung = tested on: NCI-H23 lung
HL-60(TB) leukemia = tested on: HL-60(TB) leukemia
ACHN renal = tested on: ACHN renal
NCI-H460 lung = tested on: NCI-H460 lung
SK-OV-3 ovarian = tested on: SK-OV-3 ovarian
M19-MEL melanoma = tested on: M19-MEL melanoma

CC(=O)[CH-]C(=O)c1ccccc1.CC(=O)[CH-]C(=O)c1ccccc1.CCN(CC)CC[O-].CCN(CC)CC[O-].Cl.[Hf+4]
inactive: GI50 (LOX IMVI melanoma) 72.9 µM | GI50 (KM12 colon) > 100 µM | GI50 (U251 CNS) > 100 µM | GI50 (SK-MEL-5 melanoma) > 100 µM | GI50 (HOP-62 NSCLC) > 100 µM | GI50 (HCT-15 colon) > 100 µM | GI50 (SK-MEL-28 melanoma) > 100 µM | GI50 (SNB-19 CNS) > 100 µM | GI50 (NCI-H226 lung) 66.1 µM | GI50 (SF-539 CNS) > 100 µM | GI50 (A498 renal) 32.2 µM | GI50 (MOLT-4 leukemia) 65 µM | GI50 (HCT-116 colon) > 100 µM | GI50 (TK-10 renal) > 100 µM | GI50 (EKVX NSCLC) 93.8 µM | GI50 (OVCAR-4 ovarian) > 100 µM | GI50 (IGROV1 ovarian) > 100 µM | GI50 (CCRF-CEM leukemia) 81.6 µM | GI50 (COLO 205 colon) > 100 µM | GI50 (SF-295 CNS) 73.2 µM | GI50 (786-0 renal) 88.8 µM | GI50 (LXFL 529 NSCLC) > 100 µM | GI50 (HT29 colon) > 100 µM | GI50 (UACC-62 melanoma) > 100 µM | GI50 (SN12C renal) > 100 µM | GI50 (OVCAR-3 ovarian) > 100 µM | GI50 (RPMI-8226 leukemia) > 100 µM | GI50 (HOP-92 NSCLC) 58.9 µM | GI50 (UACC-257 melanoma) > 100 µM | GI50 (NCI-H522 lung) 52.5 µM | GI50 (A549 NSCLC) > 100 µM | GI50 (CAKI-1 renal) > 100 µM | GI50 (DLD-1 colon) > 100 µM | GI50 (HCC-2998 colon) > 100 µM | GI50 (OVCAR-8 ovarian) > 100 µM | GI50 (K-562 leukemia) > 100 µM | GI50 (SW-620 colon) > 100 µM | GI50 (M14 melanoma) 92 µM | GI50 (UO-31 renal) > 100 µM | GI50 (SF-268 CNS) > 100 µM | GI50 (KM20L2 colon) > 100 µM | GI50 (RXF 393 renal) 29.7 µM | GI50 (MALME-3M melanoma) > 100 µM | GI50 (OVCAR-5 ovarian) > 100 µM | GI50 (SK-MEL-2 melanoma) > 100 µM | GI50 (NCI-H23 lung) 19.7 µM | GI50 (HL-60(TB) leukemia) > 100 µM | GI50 (ACHN renal) 44.6 µM | GI50 (NCI-H460 lung) 36.4 µM | GI50 (SK-OV-3 ovarian) > 100 µM | GI50 (M19-MEL melanoma) > 100 µM
> 100 µM: TGI (LOX IMVI melanoma) | TGI (KM12 colon) | TGI (U251 CNS) | TGI (SK-MEL-5 melanoma) | TGI (HOP-62 NSCLC) | TGI (HCT-15 colon) | TGI (SK-MEL-28 melanoma) | TGI (SNB-19 CNS) | TGI (NCI-H226 lung) | TGI (SF-539 CNS) | TGI (A498 renal) | TGI (MOLT-4 leukemia) | TGI (HCT-116 colon) | TGI (TK-10 renal) | TGI (EKVX NSCLC) | TGI (OVCAR-4 ovarian) | TGI (IGROV1 ovarian) | TGI (CCRF-CEM leukemia) | TGI (COLO 205 colon) | TGI (SF-295 CNS) | TGI (786-0 renal) | TGI (LXFL 529 NSCLC) | TGI (HT29 colon) | TGI (UACC-62 melanoma) | TGI (SN12C renal) | TGI (OVCAR-3 ovarian) | TGI (RPMI-8226 leukemia) | TGI (HOP-92 NSCLC) | TGI (UACC-257 melanoma) | TGI (NCI-H522 lung) | TGI (A549 NSCLC) | TGI (CAKI-1 renal) | TGI (DLD-1 colon) | TGI (HCC-2998 colon) | TGI (OVCAR-8 ovarian) | TGI (K-562 leukemia) | TGI (SW-620 colon) | TGI (M14 melanoma) | TGI (UO-31 renal) | TGI (SF-268 CNS) | TGI (KM20L2 colon) | TGI (RXF 393 renal) | TGI (MALME-3M melanoma) | TGI (OVCAR-5 ovarian) | TGI (SK-MEL-2 melanoma) | TGI (NCI-H23 lung) | TGI (HL-60(TB) leukemia) | TGI (ACHN renal) | TGI (NCI-H460 lung) | TGI (SK-OV-3 ovarian) | TGI (M19-MEL melanoma)
